Measured values reported in patent US10195185B2, “3-(1H-imidazo[4,5-C]pyridin-2-yl)-1H-pyrazolo[4,3-B]pyridines and therapeutic uses thereof” (Samumed, LLC, priority 2015, dated 2019).

Experiments:
Assay type in all cases: cell-based
[1] = system: IL-6 in human monocyte cell line (THP-1 cells); assay: IL-6 inhibition in LPS-stimulated THP-1 cells (HTRF); conditions: IL-6 in LPS-stimulated THP-1 cells; for EC50: HTRF; for inhibition at 10 µM: read-out: percent inhibition in brackets beside EC50 >10 μM
Method in brief: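 Readout is the 665/620 nm HTRF ratio for secreted IL-6, normalized to DMSO wells, with EC50 from a variable-slope four-parameter fit, or % inhibition at 10 μM when above 10 μM. Cells (1% FBS, 24 h beforehand) got compound for 2 h, then LPS 500 ng/mL for 22 h at 37° C; top dose 10 μM, 0.1% DMSO.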

[2] = system: SW480 colon cancer cells; assay: Cell viability assay (CellTiter-Blue), four days; conditions: Homo sapiens, 96 h; for inhibition at 10 µM: read-out: percent inhibition at 10 μM (given for EC50 of >10 μM); for EC50: CellTiter-Blue cell viability
Method in brief: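 Four-day viability readout in SW480 cells: compound at 0.0045–10 μM (1:3 series), DMSO controls in eight replicates, CellTiter-Blue fluorescence after ~3 h. Values are regression-derived EC50s, or percent inhibition at 10 μM when EC50 exceeds 10 μM.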

[3] = system: Primary human fibroblasts derived from IPF patients (LL29 cells) treated with TGF-β1; assay: Inhibition of the fibrotic process: αSMA staining in TGF-β1 treated fibroblasts; conditions: Fibroblast, 96 h, LL29 fibroblasts treated with TGF-β1, 4 days; for inhibition at 10 µM: read-out: percent inhibition in brackets beside EC50 >10 μM
Method in brief: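 Potency reflects suppression of TGF-β1-driven αSMA expression in IPF patient fibroblasts over 4 days. Values are EC50s from normalized αSMA-positive cell counts, with % inhibition at 10 μM when EC50 exceeded 10 μM.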

| Structure (SMILES) | EC50 [1] [nM] | EC50 [2] [nM] | inhibition at 10 µM [1] [%] | inhibition at 10 µM [2] [%] | EC50 [3] [nM] | inhibition at 10 µM [3] [%] |
| --- | --- | --- | --- | --- | --- | --- |
| Fc1cccc(-c2nccc3[nH]c(-c4n[nH]c5ccc(C6=CCNCC6)nc45)nc23)c1 [Compound 506, 3-(4-(3-Fluorophenyl)-1H-imidazo[4,5-c]pyridin-2-yl)-5-(1,2,3,6-tetrahydropyridin-4-yl)-1H-pyrazolo[4,3-b]pyridine] | > 10000 | > 10000 | 34.6 | 0 | 1170 | – |
| c1cc(-c2nccc3[nH]c(-c4n[nH]c5ccc(-c6cnccn6)nc45)nc23)ccn1 [Compound 584, 5-(Pyrazin-2-yl)-3-(4-(pyridin-4-yl)-1H-imidazo[4,5-c]pyridin-2-yl)-1H-pyrazolo[4,3-b]pyridine] | > 10000 | > 10000 | 32.2 | 2.1 | > 10000 | 0 |
| Fc1cccc(-c2nccc3[nH]c(-c4n[nH]c5ccc(-c6cnccn6)nc45)nc23)c1 [Compound 520, 3-(4-(3-Fluorophenyl)-1H-imidazo[4,5-c]pyridin-2-yl)-5-(pyrazin-2-yl)-1H-pyrazolo[4,3-b]pyridine] | > 10000 | > 10000 | 29.4 | 6.6 | > 10000 | 2.4 |
| Cn1cc(-c2ccc3[nH]nc(-c4nc5c(-c6cccc(F)c6)nccc5[nH]4)c3n2)cn1 [Compound 508, 3-(4-(3-Fluorophenyl)-1H-imidazo[4,5-c]pyridin-2-yl)-5-(1-methyl-1H-pyrazol-4-yl)-1H-pyrazolo[4,3-b]pyridine] | > 10000 | 2200 | 0 | – | 106 | – |

Further lines, with some results ahead:

| EC50 [1] [nM] | EC50 [2] [nM] | Structure (SMILES) | inhibition at 10 µM [1] [%] | inhibition at 10 µM [2] [%] | EC50 [3] [nM] | inhibition at 10 µM [3] [%] |
| --- | --- | --- | --- | --- | --- | --- |
| > 10000 | 2700 | CC(C)CC(=O)Nc1cncc(-c2ccc3[nH]nc(-c4nc5c(-c6cccc(F)c6)nccc5[nH]4)c3n2)c1 [Compound 2, N-(5-(3-(4-(3-Fluorophenyl)-1H-imidazo[4,5-c]pyridin-2-yl)-1H-pyrazolo [4,3-b]pyridin-5-yl)pyridin-3-yl)-3-methylbutanamide] | 2.5 | – | > 10000 | 25.1 |
| 1250 | 585 | CC(C)Nc1cncc(-c2ccc3[nH]nc(-c4nc5c(-c6cc(F)cc(NCCN(C)C)c6)nccc5[nH]4)c3n2)c1 [Compound 460, N^1-(3-Fluoro-5-(2-(5-(5-(isopropylamino)pyridin-3-yl)-1H-pyrazolo[4,3-b]pyridin-3-yl)-1H-imidazo[4,5-c]pyridin-4-yl)phenyl)-N^2,N^2-dimethylethane-1,2-diamine] | – | – | 732 | – |
| 3430 | 455 | CN(C)c1cncc(-c2ccc3[nH]nc(-c4nc5c(-c6cccs6)nccc5[nH]4)c3n2)c1 [Compound 343, N,N-Dimethyl-5-(3-(4-(thiophen-2-yl)-1H-imidazo[4,5-c]pyridin-2-yl)-1H-pyrazolo[4,3-b]pyridin-5-yl)pyridin-3-amine] | – | – | 477 | – |
| 3820 | 641 | CN(C)Cc1cncc(-c2ccc3[nH]nc(-c4nc5c(-c6cccc(F)c6)nccc5[nH]4)c3n2)c1 [Compound 13, 1-(5-(3-(4-(3-Fluorophenyl)-1H-imidazo[4,5-c]pyridin-2-yl)-1H-pyrazolo [4,3-b]pyridin-5-yl)pyridin-3-yl)-N,N-dimethylmethanamine] | – | – | 1690 | – |
